Source: US12252472B1, “Barbituric acid derivatives, their preparation and use thereof as leukocyte transmigration inhibitors and for treating inflammatory diseases, autoimmune diseases and cancer” (BAR-ILAN UNIVERSITY, priority 2017, dated 2025)

Columns and labels:
C57BL/6J mice = assay: MOG35-55/CFA-induced experimental autoimmune encephalomyelitis (EAE); format: in vivo, mouse; details: 15 mg/kg SC q3w
Procedure: Female 7-8 weeks old C57BL/6J mice were immunized with an emulsion of MOG35-55 in CFA according to standard protocol, followed by administration of pertussis toxin (PTX) in PBS. After the onset of EAE (9 days), mice were assigned by rolling enrollment to the groups one at a time as they show the first signs of EAE (paralysis score 0.5-1). Treatment group was administered with Formula 2 at 15 mg/kg dose at q3w regiment by SC injections, mock treated (vehicle) control group was administered with similar volume as a treated group. Body weight of animals was determined prior to the experiment and the administered volume of Formula 2 formulation was adjusted according to the body weight. During the experiment, mice body weight and paralysis clinical score was monitored daily.
Mice from all groups were euthanized with isoflurane 24 hours post last dose administration. Two-way ANOVA statistical analysis was performed.

[1] = tested on: mouse monocytes / macrophages from the abdominal cavity; assay: Ten-color flow cytometry (CD115, F4/80) of peritoneal cells from the peritonitis model; format: in vivo
Procedure: After inducing the inflammation (peritonitis), compound of Formula 2 was injected at a concentration of 12.5 mg/kg (DMSO, 01% in PBS, IP), twice (one day after the other). The next day, mice were sacrificed and the peritoneal liquid was collected from the control and treated mice (n=3 for each group). Two assays were conducted for the estimation of the possible anti-inflammatory effect of compound of Formula 2: leukocyte counting (the total amount and the calculation of the percentage of different leukocyte fractions) and a flow cytometry.
Flow cytometry based on a fluorescent protein marker (CD115) was selected for the analysis. It is generated by monocytes and localized to their plasma membrane as described by Yang, J. et al. (Monocyte and macrophage differentiation: circulation inflammatory monocyte as biomarker for inflammatory diseases. Biomark Res, 2014. 2(1): p. 1). This protein is able to specifically recognize and bind a F4/80 antibody that activates the immune system macrophages (Lin, H. H., et al., The macrophage F4/80 receptor is required for the induction of antigen-specific efferent regulatory T cells in peripheral tolerance. Journal of Experimental Medicine, 2005. 201(10): p. 1615-1625).
Cell viability before the FACS experiment was assessed by incubation in the amine-reactive dye Aqua (Invitrogen) (1:500) dilution in Ca^2+ and Mg^2+-free PBS) for 30 minutes in the dark at room temperature (RT), followed by a single wash in PBS. For all experiments, cells were incubated in 0.5 μg Fc Block (BD Biosciences) for 10 minutes at room temperature (RT). Surface staining was performed in the dark for 30 minutes at 4° C. in staining buffer. A surface marker (CD115, APC clone AFS98, in dilution 1:100, from eBioscience) was used. […] Fluorescence minus one (FMO) controls were used for gating analyses to distinguish positively from negatively staining cell populations. […] Compensation matrices were calculated and applied using FlowJo software (Tree Star). […]

[2] = abdominal cavity, treated vs non-treated mice, FACS

COC(=O)c1ccc(COc2c(C=C3C(=O)NC(=O)NC3=O)cccc2C(C)(C)C)cc1 [Formula 2, methyl 4-((2-(tert-butyl)-6-((2,4,6-trioxotetrahydropyrimidin-5(2H)-ylidene)methyl)phenoxy)methyl) benzoate]
body weight (C57BL/6J mice; by day 20): body weight recovery to that recorded on the onset of the disease
paralysis score, decrease (C57BL/6J mice; by day 20): from 2 to 1.5
body weight difference between treated and non-treated group (C57BL/6J mice; end of the experiment, average): approximately 4 g
paralysis score (C57BL/6J mice; starting from day 10): stable
monocyte phenotype, CD115 expression (shift in pattern of gates 1-4) ([1]; C57BL/6 mouse monocytes): reduced differentiation
amount of activated (high macrophages) [1, 2]: considerably decreased
level of non-activated (low macrophage) [1, 2]: elevated
